Test results taken from US20240343732A1, “COMPOUNDS FOR DEGRADATION OF CYCLIN-DEPENDENT KINASE 7(CDK7)” (QURIENT CO., LTD., priority 2021, published 2024).

Columns and labels:
CDK5 = biological target: T1, CDK5 (Homo sapiens, UniProt Q00535); experiment: Binding assay (FRET, LanthaScreen Eu, Tracer236) for CDK5; conditions: for IC50: read-out: CDK5 IC50 (enzyme binding assay)
T1 construct: His; purchased Invitrogen PR8543B
Experimental: (§1) Inhibition activity of compound to CDK7 kinase was tested in a binding assay which was applied to the FRET (fluorescence resonance energy transfer) principle from the europium (Eu) donor fluorophore to the acceptor fluorophore on the kinase tracer. Test compounds were made to 1.125 mM of compound solution, and then this compound solution 4-fold serial diluted in 8 steps using an automated liquid handler (JANUS™, PerkinElmer). 80 nL/well of each diluted compound solution was added into the 384-well plate (Greiner, Cat #784075) first and 7.5 ul/well of working solution [5 nM of CDK7/CycH/MNAT1 (Invitrogen, Cat #PR6749B), 4 nM of Biotin anti-His Tag Antibody (Invitrogen, Cat #PV6090), and LanthaScreen® Eu-Streptavidin (Invitrogen, Cat #PV6025)] was added. After mixing the solution well, the same volume with the working solution of Tracer236 (Invitrogen, Cat #PV5592) was added into each well in the plate. The plate was incubated for 60 minutes at room temperature and then all the fluorescence were measured using Envision leader (Perkin Elmer, USA) [Laser as excitation light; […] as the first and the second emission filter]. Data was analysed using XL Fit software.
(§2) All of the synthesized compounds were screened in the above-mentioned assay procedure. To identify the inhibition activity of compounds for other CDKs including CDK1 (Invitrogen, Cat #PR4768C), CDK2 (Invitrogen, Cat #PR4448B) and CDK5 (Invitrogen, Cat #PR8543B) were tested using the same protocol under reasonable concentration of Tracer236 and kinases for each assay. The formula for the assay buffer summarized in below table.

CDK7/CycH/MNAT1 = biological target: T2, CDK7/CycH/MNAT1 (Homo sapiens, UniProt P50613); experiment: Binding assay (FRET, LanthaScreen Eu, Tracer236) for CDK7; conditions: read-out: CDK7 IC50 (enzyme binding assay)
T2 construct: His; purchased Invitrogen PR6749B
T2 sequence (P50613 whole entry): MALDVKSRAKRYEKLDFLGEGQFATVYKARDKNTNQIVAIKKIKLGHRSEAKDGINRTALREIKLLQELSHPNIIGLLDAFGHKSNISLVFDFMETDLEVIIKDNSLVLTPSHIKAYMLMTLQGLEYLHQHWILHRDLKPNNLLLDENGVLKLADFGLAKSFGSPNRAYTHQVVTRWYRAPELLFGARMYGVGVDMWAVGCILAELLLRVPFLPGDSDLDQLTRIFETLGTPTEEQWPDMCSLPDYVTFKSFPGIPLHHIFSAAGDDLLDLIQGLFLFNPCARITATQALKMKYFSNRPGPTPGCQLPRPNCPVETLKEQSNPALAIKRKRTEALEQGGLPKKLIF
T2 sequence (P51946 whole entry partner): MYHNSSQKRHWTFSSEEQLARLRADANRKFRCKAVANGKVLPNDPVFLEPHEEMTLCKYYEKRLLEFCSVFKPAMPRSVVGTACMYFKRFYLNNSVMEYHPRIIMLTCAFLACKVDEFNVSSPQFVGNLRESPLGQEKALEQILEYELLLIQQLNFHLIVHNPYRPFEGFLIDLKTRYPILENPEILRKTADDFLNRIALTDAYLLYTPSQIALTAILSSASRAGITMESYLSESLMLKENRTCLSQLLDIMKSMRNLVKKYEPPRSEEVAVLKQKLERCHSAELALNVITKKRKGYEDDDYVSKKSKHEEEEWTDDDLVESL
T2 sequence (P51948 whole entry partner): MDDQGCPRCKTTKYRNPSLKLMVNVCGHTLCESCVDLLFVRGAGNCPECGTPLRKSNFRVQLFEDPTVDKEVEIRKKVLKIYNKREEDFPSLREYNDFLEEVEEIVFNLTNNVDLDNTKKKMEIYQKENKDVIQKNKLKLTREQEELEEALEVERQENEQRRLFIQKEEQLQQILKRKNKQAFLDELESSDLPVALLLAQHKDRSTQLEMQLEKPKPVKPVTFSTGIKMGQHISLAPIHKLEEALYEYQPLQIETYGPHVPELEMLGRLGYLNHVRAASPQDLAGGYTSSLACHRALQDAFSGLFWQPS
Experimental: as §1, §2

CDK2 = biological target: T3, CDK2 (Homo sapiens, UniProt P24941); experiment: Binding assay (FRET, LanthaScreen Eu, Tracer236) for CDK2; conditions: for IC50: read-out: CDK2 IC50 (enzyme binding assay)
T3 construct: His; purchased Invitrogen PR4448B
Experimental: as §1, §2

CDK1 = biological target: T4, CDK1 (Homo sapiens, UniProt P06493); experiment: Binding assay (FRET, LanthaScreen Eu, Tracer236) for CDK1; conditions: for IC50: read-out: CDK1 IC50 (enzyme binding assay)
T4 construct: His; purchased Invitrogen PR4768C
T4 sequence (P06493 whole entry): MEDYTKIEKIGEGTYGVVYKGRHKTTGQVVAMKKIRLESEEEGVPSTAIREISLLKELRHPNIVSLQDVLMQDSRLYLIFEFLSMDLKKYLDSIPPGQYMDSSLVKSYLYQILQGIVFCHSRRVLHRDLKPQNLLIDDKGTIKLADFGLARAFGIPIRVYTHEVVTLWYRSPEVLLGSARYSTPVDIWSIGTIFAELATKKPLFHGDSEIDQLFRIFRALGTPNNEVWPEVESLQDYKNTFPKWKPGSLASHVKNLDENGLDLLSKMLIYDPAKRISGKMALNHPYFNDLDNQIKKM
T4 sequence (P14635 whole entry partner): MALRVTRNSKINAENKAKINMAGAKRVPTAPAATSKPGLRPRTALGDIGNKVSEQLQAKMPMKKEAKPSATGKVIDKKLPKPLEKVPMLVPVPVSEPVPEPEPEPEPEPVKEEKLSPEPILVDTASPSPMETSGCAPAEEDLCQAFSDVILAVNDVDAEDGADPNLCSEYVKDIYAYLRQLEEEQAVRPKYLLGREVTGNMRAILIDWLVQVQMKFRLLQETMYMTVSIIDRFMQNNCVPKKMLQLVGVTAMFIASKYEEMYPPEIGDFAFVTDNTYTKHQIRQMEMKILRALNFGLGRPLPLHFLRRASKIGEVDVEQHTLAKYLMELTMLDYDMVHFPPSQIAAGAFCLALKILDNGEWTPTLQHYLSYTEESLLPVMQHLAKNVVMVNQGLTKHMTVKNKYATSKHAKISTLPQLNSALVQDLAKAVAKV
Experimental: as §1, §2

CDK7 protein = biological target: T5, CDK7 protein (Homo sapiens, UniProt P50613); experiment: Western blot assay for CDK7 protein degradation in A2780 cells; type: cell-based; conditions: 24 hours;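 note: A is DC50 up to 100 nM B is 100 to 1000 nM C is above 1000 nM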
T5 construct: To verify endogenous CDK7 protein degradation; endogenous in cells; host or cells: A2780 (ECACC 93112519)
T5 sequence (P50613 whole entry): as the sequence (P50613 whole entry) above
Experimental: Human ovarian cancer cell line, A2780 (Cat #93112519) was obtained from ECACC. Cells were grown in RPMI-1640 media (Invitrogen, Cat #22400105) supplemented with 10% FBS (Hyclone, Cat #SH30084.03) and 1% penicillin/streptomycin (Hyclone, Cat #SV30010) and cultured at 37° C., 5% Co2 in a humidified chamber. All cell lines were routinely tested for mycoplasma.
To verify endogenous CDK7 protein degradation upon treatment of CDK7-specific degrader, the western blot assay was conducted a 24 hours' time period. 6×10^5 cells/well of A2780 cells were plated in 6-well plate. After 24 hours, the cells were treated with various concentrations of the compound corresponding range. DMSO solvent without compound served as a control and final DMSO concentration was not to exceed 0.1% of total volume. After 24 hours of incubation at 37° C., 5% Co2 incubator, cells were collected and lysed with 60 ul of lysis buffer. Collected lysates were incubated for 30 min on ice and collect supernatant through centrifugation at 12,000 rpm for 10 min at 4° C. The protein in lysates were quantified with BCA protein quantification kit (Pierce, Cat #23227) following manufacture's protocol. Cell lysates were diluted into 1 ug/ul of concentration with lysis buffer. 20 ug of protein was loaded to each well of 4˜12% Bis-Tris gel (Invitrogen, Cat #NP0336BOX) with MOPS running buffer (Invitrogen, Cat #NP0001). The proteins were transferred from gel to membrane and incubated with primary antibody as followed at 4° C. overnight; CDK7 (CST, Cat #2090S) and β-actin (Santa Cruz, Cat #sc-47778) 1:20,000. The signals were developed and acquired with ImageQuant™ LAS 4000.

T1 sequence (Q00535 whole entry): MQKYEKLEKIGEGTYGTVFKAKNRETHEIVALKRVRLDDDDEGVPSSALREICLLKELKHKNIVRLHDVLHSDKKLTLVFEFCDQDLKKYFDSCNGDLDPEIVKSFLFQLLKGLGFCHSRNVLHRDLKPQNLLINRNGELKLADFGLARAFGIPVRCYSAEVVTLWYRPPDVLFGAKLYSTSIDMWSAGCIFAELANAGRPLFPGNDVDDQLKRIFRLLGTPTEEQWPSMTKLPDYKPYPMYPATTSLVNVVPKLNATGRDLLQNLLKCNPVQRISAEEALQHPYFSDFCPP
T1 sequence (Q15078 99-307 partner limits assumed): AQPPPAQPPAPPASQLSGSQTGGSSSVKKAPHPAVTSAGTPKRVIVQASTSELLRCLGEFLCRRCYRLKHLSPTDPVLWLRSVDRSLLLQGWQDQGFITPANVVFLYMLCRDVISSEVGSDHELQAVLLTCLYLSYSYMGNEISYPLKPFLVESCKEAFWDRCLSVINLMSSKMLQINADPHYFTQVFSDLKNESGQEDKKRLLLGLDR

Row | Structure (SMILES) | CDK5/CDK7: Selectivity of CDK7 inhibition over CDK5 inhibition (CDK5) | IC50 (CDK5) | IC50 (CDK7/CycH/MNAT1) | CDK2/CDK7: Selectivity of CDK7 inhibition over CDK2 inhibition (CDK2) | IC50 (CDK2) | CDK1/CDK7: Selectivity of CDK7 inhibition over CDK1 inhibition (CDK1) | IC50 (CDK1) | Compound concentration that caused 50% CDK7 protein degradation in A2780 cells (DC50, nM) (CDK7 protein) | DC50 (CDK7 protein; read-out: Compound concentration that caused 50% CDK7 protein degradation in A2780 cells (DC50))
1 | CC(C)c1cnn2c(NCc3ccccc3-c3nccc4cc(NC(=O)/C=C/CN(C)CCOCCNC(=O)CNc5cccc6c5C(=O)N(C5CCC(=O)NC5=O)C6=O)ccc34)nc(N3CCC(N)CC3)nc12 (stereo not drawn) [Compound 1] | A (A indicates [fold] > 500) | > 1 µM | ≤ 0.1 µM | A (A indicates [fold] > 500) | > 1 µM | A (A indicates [fold] > 500) | > 1 µM | – | –
2 | CC(C)c1cnn2c(NCc3ccccc3-c3nccc4cc(NC(=O)/C=C/CN(C)CCOCCOCCNC(=O)CNc5cccc6c5C(=O)N(C5CCC(=O)NC5=O)C6=O)ccc34)nc(N3CCC(N)CC3)nc12 (stereo not drawn) [Compound 2] | A (A indicates [fold] > 500) | > 1 µM | ≤ 0.1 µM | A (A indicates [fold] > 500) | > 1 µM | A (A indicates [fold] > 500) | > 1 µM | – | –
3 | CC(C)c1cnn2c(NCc3ccccc3-c3nccc4cc(NC(=O)/C=C/CN(C)CCOCCOCCOCCNC(=O)CNc5cccc6c5C(=O)N(C5CCC(=O)NC5=O)C6=O)ccc34)nc(N3CCC(N)CC3)nc12 (stereo not drawn) [Compound 3] | A (A indicates [fold] > 500) | > 1 µM | ≤ 0.1 µM | A (A indicates [fold] > 500) | > 1 µM | A (A indicates [fold] > 500) | > 1 µM | – | –
4 | C=C(F)C(=O)Nc1ccc2c(-c3ccccc3CNc3nc(NC[C@H]4CCN(CCOCCOCCNC(=O)CNc5cccc6c5C(=O)N(C5CCC(=O)NC5=O)C6=O)C[C@@H]4O)nc4c(C(C)C)cnn34)nccc2c1 (stereo partly drawn) [Compound 4] | B (B indicates 50 < [fold] ≤ 500) | > 1 µM | 0.1 to 1 µM | C (C indicates [fold] ≤ 50) | > 1 µM | A (A indicates [fold] > 500) | > 1 µM | – | –
5 | CC(C)c1cnn2c(NCc3ccccc3-c3nccc4cc(N)ccc34)nc(O[C@@H]3CCCN(CCOCCOCCOCCNC(=O)CNc4cccc5c4C(=O)N(C4CCC(=O)NC4=O)C5=O)C3)nc12 (stereo partly drawn) [Compound 6] | A (A indicates [fold] > 500) | > 1 µM | ≤ 0.1 µM | A (A indicates [fold] > 500) | > 1 µM | A (A indicates [fold] > 500) | > 1 µM | – | –
6 | CC(C)c1cnn2c(NCc3ccccc3-c3nccc4cc(NCCOCCOCCNC(=O)CNc5cccc6c5C(=O)N(C5CCC(=O)NC5=O)C6=O)ccc34)nc(O[C@@H]3CCCNC3)nc12 (stereo partly drawn) [Compound 7] | A (A indicates [fold] > 500) | > 1 µM | ≤ 0.1 µM | A (A indicates [fold] > 500) | > 1 µM | A (A indicates [fold] > 500) | > 1 µM | B or A | 0.1 to 1 µM
7 | CC(C)c1cnn2c(NCc3ccccc3-c3nccc4cc(NCCOCCOCCOCCNC(=O)CNc5cccc6c5C(=O)N(C5CCC(=O)NC5=O)C6=O)ccc34)nc(O[C@@H]3CCCNC3)nc12 (stereo partly drawn) [Compound 8] | B (B indicates 50 < [fold] ≤ 500) | > 1 µM | ≤ 0.1 µM | A (A indicates [fold] > 500) | > 1 µM | A (A indicates [fold] > 500) | > 1 µM | – | –
8 | CC(C)c1cnn2c(NCc3ccccc3-c3nccc4cc(N5CCN(CC6CCN(c7cc8c(cc7F)C(=O)N(C7CCC(=O)NC7=O)C8=O)CC6)CC5)ccc34)nc(O[C@@H]3CCCNC3)nc12 (stereo partly drawn) [Compound 35] | B (B indicates 50 < [fold] ≤ 500) | > 1 µM | 0.1 to 1 µM | B (B indicates 50 < [fold] ≤ 500) | > 1 µM | B (B indicates 50 < [fold] ≤ 500) | > 1 µM | – | –

Second part, the compound after the results:

Row | CDK5/CDK7: Selectivity of CDK7 inhibition over CDK5 inhibition (CDK5) | IC50 (CDK5) | IC50 (CDK7/CycH/MNAT1) | CDK2/CDK7: Selectivity of CDK7 inhibition over CDK2 inhibition (CDK2) | IC50 (CDK2) | CDK1/CDK7: Selectivity of CDK7 inhibition over CDK1 inhibition (CDK1) | IC50 (CDK1) | Compound concentration that caused 50% CDK7 protein degradation in A2780 cells (DC50, nM) (CDK7 protein) | DC50 (CDK7 protein; read-out: Compound concentration that caused 50% CDK7 protein degradation in A2780 cells (DC50)) | Structure (SMILES)
9 | A (A indicates [fold] > 500) | > 1 µM | ≤ 0.1 µM | A (A indicates [fold] > 500) | > 1 µM | A (A indicates [fold] > 500) | > 1 µM | – | – | CC(C)c1cnn2c(NCc3ccccc3-c3nccc4cc(N)ccc34)nc(O[C@@H]3CCCN(CCOCCOCCNC(=O)CNc4cccc5c4C(=O)N(C4CCC(=O)NC4=O)C5=O)C3)nc12 (stereo partly drawn) [Compound 5]
10 | A (A indicates [fold] > 500) | > 1 µM | ≤ 0.1 µM | A (A indicates [fold] > 500) | > 1 µM | A (A indicates [fold] > 500) | > 1 µM | – | – | CN[C@@H](C)C(=O)N[C@H](C(=O)N1CCC[C@H]1c1nc(C(=O)c2cccc(OCCOCCOCCNc3ccc4c(-c5ccccc5CNc5nc(O[C@@H]6CCCNC6)nc6c(C(C)C)cnn56)nccc4c3)c2)cs1)C1CCCCC1 [Compound 18]
11 | A (A indicates [fold] > 500) | > 1 µM | ≤ 0.1 µM | A (A indicates [fold] > 500) | > 1 µM | A (A indicates [fold] > 500) | > 1 µM | – | – | Cc1ncsc1-c1ccc(CNC(=O)[C@@H]2C[C@@H](O)CN2C(=O)[C@@H](NC(=O)C2(F)CC2)C(C)(C)C)c(OCCOCCOCCOCCOCCOCCNc2ccc3c(-c4ccccc4CNc4nc(O[C@@H]5CCCNC5)nc5c(C(C)C)cnn45)nccc3c2)c1 [Compound 23]
12 | B (B indicates 50 < [fold] ≤ 500) | > 1 µM | ≤ 0.1 µM | B (B indicates 50 < [fold] ≤ 500) | > 1 µM | B (B indicates 50 < [fold] ≤ 500) | > 1 µM | – | – | Cc1ncsc1-c1ccc(CNC(=O)[C@@H]2C[C@@H](O)CN2C(=O)[C@@H](NC(=O)C2(F)CC2)C(C)(C)C)c(OCCN2CCC(N3CCC(CNc4ccc5c(-c6ccccc6CNc6nc(N[C@@H]7CCCNC7)nc7c(C(C)C)cnn67)nccc5c4)CC3)CC2)c1 [Compound 29]
13 | B (B indicates 50 < [fold] ≤ 500) | > 1 µM | ≤ 0.1 µM | B (B indicates 50 < [fold] ≤ 500) | > 1 µM | B (B indicates 50 < [fold] ≤ 500) | > 1 µM | – | – | CC(C)c1cnn2c(NCc3ccccc3-c3nccc4cc(N5CCC(CN6CCN(c7cc8c(cc7F)C(=O)N(C7CCC(=O)NC7=O)C8=O)CC6)CC5)ccc34)nc(O[C@@H]3CCCNC3)nc12 (stereo partly drawn) [Compound 36]
